Tests used:
[1] = system: TrkA; experiment: Biotinylated peptide pull down of TrkA; format: binding; conditions: lysate of transfected HEK293 cells, FIG. 4D
Protocol: For peptide pull down assays, the biotinylated c29 or LC1 control peptides were incubated with protein A-sepharose beads or Dynabeads MyOne Streptavidin T1 (Invitrogen) overnight at 4° C. Cell lysates were then added to the peptide-protein A-sepharose complex or Dynabeads MyOne Streptavidin T1 and incubated for 3 hours at 4° C. Peptide-receptor complexes were washed extensively with RIPA lysis buffer and eluted by boiling in Laemmli sample buffer. For p75^NTR construct immunoprecipitations, HEK293 cells were treated with NGF at 50 ng/ml for 10 minutes 48 hours after transfection with 1 μg DNA per well. Cells were immediately harvested in ice-cold phosphate buffered saline (PBS) and washed twice, then lysed in 1 ml of lysis buffer. Cell lysates were pre-cleared in 75 μl (1:2) protein-G sepharose: PBS by rotation end-over-end for 2 hours at 4′C. Lysates were then incubated with 3-5 μg antibody, either mouse-anti-YFP/GFP (Roche) or rabbit-anti-human p75^NTR intracellular domain antibody (Promega), and rotated end-over-end for 2 hours at 4° C.
Immunoprecipitation was performed by the addition of 75 μl (1:2) protein-G sepharose: PBS and incubation end-over-end for 16 hours at 4° C. The immunoprecipitate was washed 4 times with 1 ml of PBS then eluted in 60 μl 2×LDS sample buffer. For immunoblotting, samples were boiled for 5 minutes, separated by SDS-PAGE and transferred onto nitrocellulose membranes, then western blotted using standard protocols (see Example 1 for antibodies used).
The c29 peptide was labelled with biotin and attached to a sepharose bead column. Lysates from cells was passed over the column followed by several wash steps. The proteins that bound to the c29 peptide (proteins that are pulled down) were eluted from the column with SDS buffer and separated in size by SDS-PAGE electrophoresis. The gel was Western blotted and the membrane probed with antibodies to proteins of interest.

[2] = system: primary E13 motor neurons; experiment: Primary motor neuron survival and growth factor withdrawal; format: cell-based, mouse
Protocol: Briefly, pregnant mothers were sacrificed by cervical dislocation and the uterus removed by Caesarean section and placed in Neurobasal medium. Lumbar spinal cords were dissected from E13 embryos on ice. Batches of 2 or 3 spinal cords were incubated in 1 mL 0.05% trypsin-ETDA for 10 minutes at 37° C. in 15 mL tubes. To prevent further trypsinisation, 0.14 mg/mL trypsin inhibitor solution was added and the tissue centrifuged at 100×g for 7 minutes, without acceleration or deceleration. The supernatant was removed and the spinal cord tissue was resuspended in 1 mL of Neurobasal Medium (NB). In order to obtain a single cell suspension, each batch of 2-3 spinal cords was agitated manually for 2 minutes. The suspension was allowed to settle and the supernatant collected after being filtered through a 100 μm sieve. The remaining tissue was further triturated ˜8 times through a P200 pipette and filtered through a 100 μm sieve. The combined supernatants were then separated by centrifugation on a 5 ml cushion of 9% (vol/vol) OptiPrep® gradient in NB containing 2% B27 supplement for 45 min at 850×g, without acceleration or deceleration. To prevent toxicity following Optiprep® separation, the layer containing MNs was harvested into 10 mL of NB containing 10% HS, and the cell suspension was centrifuged at 900×g for 7 minutes at 24° C., without acceleration or deceleration. The supernatant was removed and the cell pellet was resuspended in 1 mL of NB medium.
The number of viable motor neurons was counted on a haemocytometer using 0.08% trypan blue and neurons plated in 4-well culture dishes at a density of 3,000 cells per well in 100 μL NB containing 10% HS. […] Primary motor neurons were maintained at 37° C. in a humidified atmosphere with 5% CO2 and culture medium was replaced at day 1 and 3. Phase contrast images of motor neurons were taken using an Olympus (6IX81) microscope after motor neurons were grown in vitro for up to 7 days.
To assess the effects of c29 peptide on motor neuronal survival in limiting growth factor concentrations, isolated spinal motor neurons were plated and treated with 0.01, 0.1 or 1.0 ng/ml of BDNF in the presence of 1 μm PTD4-linked c29 or scrambled peptide, and cultured for 5 days with the addition of fresh BDNF and peptide treatments on day 2 and 4. For growth factor-withdrawal assays, following initial plating in 1 ng/ml of BDNF, CNTF or GDNF, cultures were washed four times with serum-free Neurobasal (NB) medium, after which the medium was replaced with medium containing 1-0.01 ng/ml of BDNF, CNTF or GDNF and 1 μM PTD4-linked c29 or scrambled peptides, as indicated. For assays investigating the effect of c29 on NGF-mediated motor neuron death, cultures were grown in 1 ng/ml BDNF, CNTF or GDNF for 1 day, before being treated with 100 ng/ml 2.5S NGF in and 1 μM PTD4-linked c29 or scrambled peptide, as indicated. Motor neurons were counted on day 1, and to assess the effects of various treatments days 3 and 5 (4 separate 10×10 grid fields of each well per experiment).

[3] = system: C7-8 spinal cord motor neurons; experiment: Motor neuron axotomy (median and ulnar nerve) in neonatal rat; format: in vivo; conditions: P4 rat pups, peptide in gel foam at axonal stump, 5-day recovery, relative to contralateral side
Protocol: Median and ulnar nerve axotomy was performed on 4 day-old Wistar rat pups as previously described (Cheema et al., 1996). Peptides (c29 and vehicle only; 100 nM) were applied via a 1 mm^3 cube of pluronic gel foam that was sutured to the proximal axonal stump (Cheema et al., 1996). After 5 days the animals were perfused with a 4% solution of paraformaldehyde in phosphate buffer. Cervical spinal cords were removed, after which serial sections were cut at 40 μm, mounted onto gelatin-coated slides and stained in 0.1% cresyl violet. Details of the counting procedure have been described previously (Cheema et al., 1994).
We next investigated whether c29 could prevent motor neuron death following growth factor withdrawal in vivo using a neonatal rat axotomy model. Following unilateral median and ulnar nerve transections of postnatal day 4 (P4) rat pups, c29 or the vehicle protein transduction domain (PTD4) was applied to the proximal site of transaction in a small cube of gel foam. After a 5-day recovery, the number of surviving C7-8 spinal cord motor neurons relative to the contralateral side was determined by histological counts. Such an axotomy causes 50% of the ipsilateral motor neurons to die (Cheema et al., 1996), with control peptide treatment having no effect on this degree of cell death (FIG. 7E, F). […]

[4] = system: PC12 cells; experiment: NGF-FITC binding by flow cytometry, PC12 cells; conditions: for % of cell population with FITC above background / Maximal fluorescence per cell of the population / Mean fluorescence per FITC-positive cell / Median population fluorescence: NGF-FITC
Protocol: The NGF was conjugated to FITC by standard methods and detailed flow cytometry acquisition and analysis. For NGF-FITC conjugation 400 μg βNGF in 200 μl pH 8.5 NaHCO3 buffer was mixed with 5-10 μl of 10 mg/ml FITC in 100 μl DMSO for 10 hours at 4° C. on an orbital shaker set to 100 rpm. The excess FITC was removed by dialysis against 3 changes of 5 L of 10 mM Tris, 150 mM NaCl, 0.2% acetic acid, pH 8.2 for 24 hours at 4° C. Conjugate F/P characterization was determined by measuring absorbance at 280 nm and 495 nm according to manufacturer's instructions. Biological activity of the NGF-FITC conjugate was tested by performing PC12 cell neurite outgrowth assays unlabelled NGF, and comparing the levels of neuritogenesis. NGF-FITC conjugates were used within 4 weeks of synthesis.
For the flow cytometry NGF binding assays, fluorescence cell parameters of at least 20,000 events for PC12 cells and 100,000 events for HEK293 cells were acquired by flow cytometry list mode and measurements were performed on a single cell basis (with compensation for double event counting). Dead cells and debris were gated out of the analysis on the basis of forward scatter fluorescence, and mean, median and maximal fluorescence values of the gated cell populations were analysed using FACS Diva Software (Becton-Dickinson Biosciences) and FACS Express Software (Becton-Dickinson Biosciences).
Background fluorescence of HEK293 cells was non-transfected cells (±c29 or scrambled peptide treatment) treated with 26 nM NGF-FITC. For PC12 cells, the control population was cells that had not been treated with NGF-FITC. Analysis of real-time NGF-FITC receptor binding experiments was performed on 550,000-600,000 cells at 4° C. in serum free NB medium and binding kinetics were calculated from raw data files compressed to 50,000 binding events using FlowJo and MatLab Software. Data was plotted with the use of GraphPad Prism.
Only NGF-FITC preparations that promoted equivalent neurite outgrowth of PC12 cells to that of unlabelled NGF were used in binding experiments. To investigate NGF binding, PC12 or transfected HEK293 cells were serum starved for 4 hours, harvested, washed with Dulbecco's Modified Eagle Medium (DMEM), and counted. When used, c29 or scrambled peptide were added to cultures for the third hour of the serum starvation procedure. 1×10^7 cells/ml suspended in 500 μl of serum-free DMEM were incubated with 26 nM NGF-FITC on ice for 60 minutes before analysis. For binding competition assays, following 1 hour in NGF-FITC, cells were washed with ice-cold PBS containing 0.1% normal bovine serum and incubated on ice with unlabeled NGF at concentrations ranging from 100 pM to 10 μM for 30 minutes, then washed twice in PBS before being analysed on a BD Flow Cytometer FACS Scan (Becton-Dickinson).
First, to determine the concentration of c29 required to modulate NGF binding, c29 levels were titrated with a fixed concentration of NGF-FITC.

[5] = system: TrkB-expressing cortical neurons; experiment: Western blot of phosphorylated Erk1/2 in BDNF-treated cortical neurons; format: cell-based; conditions: E16 cultured cortical neurons, 15 minutes after BDNF treatment

KRWNSCKQNKQGANSRPVNQTPPPEGEKL (c29- Fragment of p75ICD) [29 amino acid peptide of the p75NTR juxtamembrane Chopper domain; delivered to cells linked to PTD4 or disulfide-linked carrier]
pull down of TrkA [1]: able to pull down TrkA | NGF-induced cell death of motor neurons ([2]; 1 ng/ml BDNF plus NGF): significantly protected from NGF-induced cell death | neuronal survival after BDNF withdrawal ([2]; 10-fold lower BDNF, vs scrambled peptide): significantly increased neuronal survival | survival of motor neurons following CNTF or GDNF withdrawal ([2]; 10-fold lower CNTF or GDNF): no effect on the survival of motor neurons | motor neuron survival ([2]; BDNF 0.01-1.0 ng/ml, after 5 days, vs control cultures): increased survival | axotomised neurons that died [3]: 12% | % of cell population with FITC above background ([4]; c.f. PC12): 115.7 ± 19.7% | Maximal fluorescence per cell of the population ([4]; c.f. PC12): 123.6 ± 17.3% | Mean fluorescence per FITC-positive cell ([4]; c.f. PC12): 126.3 ± 4.8% | Median population fluorescence ([4]; c.f. PC12): 127.4 ± 8.1% | % of cell population with FITC above background ([4]; c.f. PC12 + SC): 115.3 ± 13.4% | Maximal fluorescence per cell of the population ([4]; c.f. PC12 + SC): 123.1 ± 5.2% | Mean fluorescence per FITC-positive cell ([4]; c.f. PC12 + SC): 121.4 ± 5.5% | Median population fluorescence ([4]; c.f. PC12 + SC): 122.5 ± 8.4% | all measured fluorescence parameters of the FITC-positive population ([4]; PC12 cells, compared to control or scrambled peptide-treated cells): increased | c29 concentration at which an increase in median fluorescence was observed ([4]; fixed concentration of NGF-FITC, FIG. 10A): 1 pM | phosphorylated Erk1/2 in response to BDNF [5]: enhanced trophic signaling

— US20150344535A1, “NEUROTROPHIN-TYROSINE KINASE RECEPTOR SIGNALING” (THE UNIVERSITY OF QUEENSLAND, priority 2012, published 2015)
